Measurements taken from article PMC4032265 (PLoS ONE, 2014).
Several values for one entry are separate records, joined by “and”; a condition that tells them apart may be missing. Equal entries are not always repeated. Where two headings read alike, the source gives them in different places.

What was measured:
[1] = target: T1, α2C adrenergic receptor (Homo sapiens, UniProt P18825); experiment: PDSP radioligand binding, α2C; details: for inhibition at 10 µM: read-out: % inhibition at 10 µM, single concentration 10 µM; for Ki: full concentration-response curves, n = 3-6 unless noted
T1 sequence (P18825 1-462): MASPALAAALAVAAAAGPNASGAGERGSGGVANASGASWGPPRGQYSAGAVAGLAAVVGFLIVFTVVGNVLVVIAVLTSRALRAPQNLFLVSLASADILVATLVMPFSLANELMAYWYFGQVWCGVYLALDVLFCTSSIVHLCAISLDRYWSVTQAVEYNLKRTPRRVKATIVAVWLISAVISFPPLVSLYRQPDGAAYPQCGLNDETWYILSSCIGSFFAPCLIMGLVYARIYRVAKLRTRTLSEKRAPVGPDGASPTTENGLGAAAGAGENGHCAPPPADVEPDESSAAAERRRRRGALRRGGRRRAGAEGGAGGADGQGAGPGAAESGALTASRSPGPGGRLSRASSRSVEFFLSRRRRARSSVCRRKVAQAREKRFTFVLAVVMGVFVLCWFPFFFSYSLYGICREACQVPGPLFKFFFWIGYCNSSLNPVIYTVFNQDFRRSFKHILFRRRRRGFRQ

[2] = target: β3 adrenergic receptor (Homo sapiens, UniProt P13945); experiment: PDSP radioligand binding, β3; details: for Ki: full concentration-response curves, n = 3-6 unless noted; for inhibition at 10 µM: read-out: % inhibition at 10 µM, single concentration 10 µM
Chain of β3 adrenergic receptor (P13945 whole entry): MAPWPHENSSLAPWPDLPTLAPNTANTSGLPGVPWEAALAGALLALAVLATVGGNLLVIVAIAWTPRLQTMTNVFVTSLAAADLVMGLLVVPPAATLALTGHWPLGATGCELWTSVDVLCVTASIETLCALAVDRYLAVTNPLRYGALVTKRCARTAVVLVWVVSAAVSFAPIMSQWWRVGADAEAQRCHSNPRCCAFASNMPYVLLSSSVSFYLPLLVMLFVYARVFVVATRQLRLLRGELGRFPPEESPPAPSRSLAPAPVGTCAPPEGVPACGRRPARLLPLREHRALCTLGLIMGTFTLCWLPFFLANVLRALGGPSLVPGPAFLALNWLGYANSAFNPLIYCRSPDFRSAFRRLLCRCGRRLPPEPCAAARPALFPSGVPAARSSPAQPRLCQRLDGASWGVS

[3] = target: 5HT2B serotonergic receptor (Homo sapiens, UniProt P41595); experiment: PDSP radioligand binding, 5HT2B; details: for inhibition at 10 µM: read-out: % inhibition at 10 µM; for Ki: full concentration-response curves, n = 3-6 unless noted
Chain of 5HT2B serotonergic receptor (P41595 whole entry): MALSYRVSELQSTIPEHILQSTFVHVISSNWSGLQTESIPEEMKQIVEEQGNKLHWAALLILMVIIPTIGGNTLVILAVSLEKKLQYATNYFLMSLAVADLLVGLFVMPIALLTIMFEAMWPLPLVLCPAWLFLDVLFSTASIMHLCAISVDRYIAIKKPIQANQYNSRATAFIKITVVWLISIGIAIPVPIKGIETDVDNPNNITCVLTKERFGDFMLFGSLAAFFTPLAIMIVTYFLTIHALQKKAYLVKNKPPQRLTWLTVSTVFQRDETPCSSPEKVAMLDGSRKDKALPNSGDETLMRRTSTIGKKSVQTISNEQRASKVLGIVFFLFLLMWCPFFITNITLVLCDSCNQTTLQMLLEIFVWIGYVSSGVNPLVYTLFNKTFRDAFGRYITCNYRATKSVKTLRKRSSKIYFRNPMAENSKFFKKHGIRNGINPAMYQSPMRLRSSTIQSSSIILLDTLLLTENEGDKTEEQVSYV

[4] = target: T2, 5HT3 ion channels (Homo sapiens, UniProt P46098); experiment: PDSP radioligand binding, 5HT3 ion channel; details: for inhibition at 10 µM: read-out: % inhibition at 10 µM, single concentration 10 µM
T2 sequence (P46098 24-478): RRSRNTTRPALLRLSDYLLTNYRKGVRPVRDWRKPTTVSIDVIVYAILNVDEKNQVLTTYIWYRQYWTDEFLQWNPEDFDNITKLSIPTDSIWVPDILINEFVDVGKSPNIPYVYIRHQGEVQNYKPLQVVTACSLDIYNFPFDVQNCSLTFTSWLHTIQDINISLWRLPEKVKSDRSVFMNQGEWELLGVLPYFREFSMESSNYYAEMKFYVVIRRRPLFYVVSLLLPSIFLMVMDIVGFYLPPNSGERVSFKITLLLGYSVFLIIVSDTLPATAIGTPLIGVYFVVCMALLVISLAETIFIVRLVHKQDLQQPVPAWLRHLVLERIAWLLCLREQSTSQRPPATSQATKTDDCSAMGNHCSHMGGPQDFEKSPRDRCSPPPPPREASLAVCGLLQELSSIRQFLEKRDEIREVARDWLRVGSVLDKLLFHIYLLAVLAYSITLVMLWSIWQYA

[5] = target: T3, α1A adrenergic receptor (Homo sapiens, UniProt P35348); experiment: PDSP radioligand binding, α1A; details: read-out: % inhibition at 10 µM; single concentration 10 µM
T3 sequence (P35348 1-466): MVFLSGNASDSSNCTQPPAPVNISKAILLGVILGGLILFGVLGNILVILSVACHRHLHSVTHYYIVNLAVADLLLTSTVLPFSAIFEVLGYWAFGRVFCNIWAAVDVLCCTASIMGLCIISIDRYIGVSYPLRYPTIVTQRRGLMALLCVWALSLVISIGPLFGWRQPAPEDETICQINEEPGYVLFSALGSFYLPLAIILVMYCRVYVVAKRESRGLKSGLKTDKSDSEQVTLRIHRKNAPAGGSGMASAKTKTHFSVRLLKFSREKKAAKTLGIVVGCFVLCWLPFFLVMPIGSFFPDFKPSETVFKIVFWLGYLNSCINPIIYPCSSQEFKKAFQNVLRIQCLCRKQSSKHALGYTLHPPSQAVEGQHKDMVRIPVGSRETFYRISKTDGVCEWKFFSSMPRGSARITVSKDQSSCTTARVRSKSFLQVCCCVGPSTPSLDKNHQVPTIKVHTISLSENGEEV

[6] = target: β1 adrenergic receptor (Homo sapiens, UniProt P08588); experiment: PDSP radioligand binding, β1; details: read-out: % inhibition at 10 µM; single concentration 10 µM
Chain of β1 adrenergic receptor (P08588 whole entry, species assumed): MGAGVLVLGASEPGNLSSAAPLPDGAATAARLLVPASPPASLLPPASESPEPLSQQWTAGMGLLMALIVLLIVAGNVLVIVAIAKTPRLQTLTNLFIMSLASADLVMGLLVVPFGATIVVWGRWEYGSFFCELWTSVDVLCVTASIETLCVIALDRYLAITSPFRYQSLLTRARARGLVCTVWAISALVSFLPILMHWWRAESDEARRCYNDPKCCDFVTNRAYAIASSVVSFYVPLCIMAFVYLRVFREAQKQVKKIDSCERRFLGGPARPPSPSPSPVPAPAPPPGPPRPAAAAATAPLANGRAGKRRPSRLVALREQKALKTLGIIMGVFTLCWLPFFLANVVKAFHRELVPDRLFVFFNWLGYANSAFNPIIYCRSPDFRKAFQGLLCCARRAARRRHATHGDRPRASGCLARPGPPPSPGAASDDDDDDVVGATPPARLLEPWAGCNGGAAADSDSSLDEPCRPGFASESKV

[7] = target: T4, M2 muscarinic acetylcholine receptor (Homo sapiens, UniProt P08172); experiment: PDSP radioligand binding, M2; details: read-out: % inhibition at 10 µM; single concentration 10 µM
T4 sequence (P08172 1-466): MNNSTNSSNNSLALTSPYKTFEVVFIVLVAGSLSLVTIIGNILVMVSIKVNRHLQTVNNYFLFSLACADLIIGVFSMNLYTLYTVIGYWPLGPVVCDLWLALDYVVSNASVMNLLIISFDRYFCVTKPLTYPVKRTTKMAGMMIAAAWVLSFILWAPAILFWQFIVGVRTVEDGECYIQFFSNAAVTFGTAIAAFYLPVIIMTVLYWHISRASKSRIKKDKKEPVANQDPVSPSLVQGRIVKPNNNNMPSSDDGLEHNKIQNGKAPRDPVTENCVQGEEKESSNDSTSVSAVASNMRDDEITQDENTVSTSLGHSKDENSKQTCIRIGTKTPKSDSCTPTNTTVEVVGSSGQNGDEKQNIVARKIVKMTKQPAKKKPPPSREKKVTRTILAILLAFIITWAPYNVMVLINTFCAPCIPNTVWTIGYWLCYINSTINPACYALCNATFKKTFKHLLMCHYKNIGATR

[8] = target: H1 histaminergic receptor (Homo sapiens, UniProt P35367); experiment: PDSP radioligand binding, H1; details: read-out: % inhibition at 10 µM; single concentration 10 µM
Chain of H1 histaminergic receptor (P35367 whole entry): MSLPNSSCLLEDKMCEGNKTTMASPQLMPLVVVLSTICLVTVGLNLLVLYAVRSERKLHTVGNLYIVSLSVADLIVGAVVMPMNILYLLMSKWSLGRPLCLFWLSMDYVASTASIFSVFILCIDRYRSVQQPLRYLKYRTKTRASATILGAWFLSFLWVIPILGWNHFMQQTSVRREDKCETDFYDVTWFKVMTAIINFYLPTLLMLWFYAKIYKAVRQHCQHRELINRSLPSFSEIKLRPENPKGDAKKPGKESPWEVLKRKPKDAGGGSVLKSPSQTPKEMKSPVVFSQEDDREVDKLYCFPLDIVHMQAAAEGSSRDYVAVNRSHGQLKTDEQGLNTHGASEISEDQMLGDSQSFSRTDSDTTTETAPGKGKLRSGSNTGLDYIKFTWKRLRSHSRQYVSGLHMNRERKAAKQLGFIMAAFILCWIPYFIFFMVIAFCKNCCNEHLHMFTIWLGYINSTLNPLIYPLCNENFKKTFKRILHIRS

[9] = target: D3 dopaminergic receptor (Homo sapiens, UniProt P35462); experiment: PDSP radioligand binding, D3; details: read-out: % inhibition at 10 µM; single concentration 10 µM
Chain of D3 dopaminergic receptor (P35462 whole entry): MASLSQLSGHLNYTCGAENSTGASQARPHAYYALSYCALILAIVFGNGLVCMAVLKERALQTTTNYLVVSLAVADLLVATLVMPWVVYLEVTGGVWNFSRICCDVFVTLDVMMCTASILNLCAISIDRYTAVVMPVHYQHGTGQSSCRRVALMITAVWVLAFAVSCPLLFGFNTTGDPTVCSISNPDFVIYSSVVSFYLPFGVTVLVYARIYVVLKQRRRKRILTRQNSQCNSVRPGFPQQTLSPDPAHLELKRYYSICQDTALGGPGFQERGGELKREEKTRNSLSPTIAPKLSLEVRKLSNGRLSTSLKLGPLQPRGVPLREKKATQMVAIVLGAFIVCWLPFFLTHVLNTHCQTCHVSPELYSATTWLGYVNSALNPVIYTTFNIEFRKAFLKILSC

[10] = target: T5, D4 dopaminergic receptor (Homo sapiens, UniProt P21917); experiment: PDSP radioligand binding, D4; details: read-out: % inhibition at 10 µM; single concentration 10 µM
T5 sequence (P21917 1-419): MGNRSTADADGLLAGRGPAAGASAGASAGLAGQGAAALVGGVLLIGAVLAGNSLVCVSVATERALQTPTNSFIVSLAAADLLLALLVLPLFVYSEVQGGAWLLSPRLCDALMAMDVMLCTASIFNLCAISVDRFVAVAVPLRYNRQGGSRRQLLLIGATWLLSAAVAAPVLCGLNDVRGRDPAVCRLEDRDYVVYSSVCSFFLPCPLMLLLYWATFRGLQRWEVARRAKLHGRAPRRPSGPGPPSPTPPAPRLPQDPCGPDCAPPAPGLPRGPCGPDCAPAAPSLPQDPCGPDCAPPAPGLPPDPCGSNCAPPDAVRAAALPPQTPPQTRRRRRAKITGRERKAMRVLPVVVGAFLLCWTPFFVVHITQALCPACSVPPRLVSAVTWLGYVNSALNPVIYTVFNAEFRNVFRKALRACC

[11] = target: 5HT1B serotonergic receptor (Homo sapiens, UniProt P28222); experiment: PDSP radioligand binding, 5HT1B; details: read-out: % inhibition at 10 µM; single concentration 10 µM
Chain of 5HT1B serotonergic receptor (P28222 whole entry): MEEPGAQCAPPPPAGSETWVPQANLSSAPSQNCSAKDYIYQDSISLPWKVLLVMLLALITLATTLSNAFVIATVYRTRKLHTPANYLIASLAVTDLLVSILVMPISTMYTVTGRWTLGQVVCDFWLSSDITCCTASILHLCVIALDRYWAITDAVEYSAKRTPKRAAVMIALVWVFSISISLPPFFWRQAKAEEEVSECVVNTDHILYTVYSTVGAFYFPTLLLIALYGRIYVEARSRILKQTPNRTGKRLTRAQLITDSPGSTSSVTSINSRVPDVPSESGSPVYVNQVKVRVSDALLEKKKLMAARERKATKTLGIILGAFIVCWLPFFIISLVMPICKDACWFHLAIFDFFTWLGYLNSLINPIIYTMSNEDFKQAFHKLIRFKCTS

[12] = target: 5HT1D serotonergic receptor (Homo sapiens, UniProt P28221); experiment: PDSP radioligand binding, 5HT1D; details: read-out: % inhibition at 10 µM; single concentration 10 µM
Chain of 5HT1D serotonergic receptor (P28221 whole entry): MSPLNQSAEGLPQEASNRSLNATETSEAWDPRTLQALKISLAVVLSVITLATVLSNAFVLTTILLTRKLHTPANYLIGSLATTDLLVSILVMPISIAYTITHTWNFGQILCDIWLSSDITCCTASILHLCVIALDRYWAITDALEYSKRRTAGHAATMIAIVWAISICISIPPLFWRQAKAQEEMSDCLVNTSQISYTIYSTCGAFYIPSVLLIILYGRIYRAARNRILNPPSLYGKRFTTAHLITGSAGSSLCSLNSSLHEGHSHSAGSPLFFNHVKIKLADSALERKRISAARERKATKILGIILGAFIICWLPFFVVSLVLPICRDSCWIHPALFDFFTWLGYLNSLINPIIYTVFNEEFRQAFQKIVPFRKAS

[13] = target: µ opioid receptor (Homo sapiens, UniProt P35372); experiment: PDSP radioligand binding, µ opioid; details: read-out: % inhibition at 10 µM; single concentration 10 µM
Chain of µ opioid receptor (P35372 whole entry): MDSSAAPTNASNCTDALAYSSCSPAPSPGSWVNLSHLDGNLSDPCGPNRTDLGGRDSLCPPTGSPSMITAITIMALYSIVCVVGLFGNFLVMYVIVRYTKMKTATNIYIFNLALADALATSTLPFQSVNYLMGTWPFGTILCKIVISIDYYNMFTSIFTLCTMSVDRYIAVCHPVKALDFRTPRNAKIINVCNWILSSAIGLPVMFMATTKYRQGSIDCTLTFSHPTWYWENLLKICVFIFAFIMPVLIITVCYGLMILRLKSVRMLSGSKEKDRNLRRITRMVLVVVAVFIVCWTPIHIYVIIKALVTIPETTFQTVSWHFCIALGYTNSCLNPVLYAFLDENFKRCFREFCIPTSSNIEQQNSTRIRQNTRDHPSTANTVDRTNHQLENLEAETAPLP

[14] = test system: GABAA receptor; experiment: PDSP radioligand binding, GABAA; details: single concentration 10 µM

SMILES: CNC(=O)[C@@]12C[C@@H]1[C@@H](n1cnc3c(NC)nc(C#Cc4ccc(F)c(F)c4)nc31)[C@H](O)[C@@H]2O [Compound 5]
- inhibition at 10 µM [1]: 13%
- Ki [2]: 2.32 ± 0.39 µM
- inhibition at 10 µM [2]: 22%
- inhibition at 10 µM [3]: 4%
- inhibition at 10 µM [4]: 2%
- inhibition at 10 µM [5]: 0%
- inhibition at 10 µM [6]: 9%
- inhibition at 10 µM [7]: 0%
- inhibition at 10 µM [8]: 0%
- inhibition at 10 µM [9]: 4%
- inhibition at 10 µM [10]: 4%
- inhibition at 10 µM [11]: 15%
- inhibition at 10 µM [12]: 13%
- inhibition at 10 µM [13]: 5%
- % inhibition at 10 µM [14]: 0%

SMILES: O[C@@H]1[C@H](O)[C@@H]2C[C@@H]2[C@H]1n1cnc2c(NCc3cccc(Cl)c3)nc(C#Cc3ccc(F)c(F)c3)nc21 [Compound 6]
- Ki [1]: 5.4 ± 1.22 µM
- inhibition at 10 µM [1]: 11%
- Ki [2]: 2.46 ± 0.13 µM
- inhibition at 10 µM [2]: 27%
- inhibition at 10 µM ([3]; single concentration 10 µM): 34%
- inhibition at 10 µM [4]: 0%
- inhibition at 10 µM [5]: 13%
- inhibition at 10 µM [6]: 6%
- inhibition at 10 µM [7]: 7%
- inhibition at 10 µM [8]: 3%
- inhibition at 10 µM [9]: 0%
- inhibition at 10 µM [10]: 0%
- inhibition at 10 µM [11]: 13%
- inhibition at 10 µM [12]: 12%
- inhibition at 10 µM [13]: 0%

SMILES: O[C@@H]1[C@H](O)[C@@H]2C[C@@H]2[C@H]1n1cnc2c(NCc3cccc(Cl)c3)ncnc21 [Compound 7]
- Ki [1]: 5.36 ± 1.25 µM
- inhibition at 10 µM [1]: 51%
- inhibition at 10 µM [2]: 4%
- Ki [3]: 2.22 ± 0.65 µM
- inhibition at 10 µM ([3]; single concentration 10 µM): 75%
- Ki ([4]; full concentration-response curves, n = 3-6 unless noted): 3.26 ± 0.8 µM
- inhibition at 10 µM [4]: 83%
- inhibition at 10 µM [5]: 15%
- inhibition at 10 µM [6]: 0%
- inhibition at 10 µM [7]: 15%
- inhibition at 10 µM [8]: 64%
- inhibition at 10 µM [9]: 4%
- inhibition at 10 µM [10]: 0%
- inhibition at 10 µM [11]: 2%
- inhibition at 10 µM [12]: 4%
- inhibition at 10 µM [13]: 1%
- % inhibition at 10 µM [14]: 0%

SMILES: Fc1ccc(C#Cc2nc(NCc3cccc(Cl)c3)c3nc[nH]c3n2)cc1F [Compound 8]
- Ki [1]: 1.02 ± 0.69 µM
- inhibition at 10 µM [1]: 83%
- inhibition at 10 µM [2]: 5%
- Ki [3]: 4 ± 1.92 µM
- inhibition at 10 µM ([3]; single concentration 10 µM): 39%
- inhibition at 10 µM [4]: 0%
- inhibition at 10 µM [5]: 0%
- inhibition at 10 µM [6]: 0%
- inhibition at 10 µM [7]: 6%
- inhibition at 10 µM [8]: 1%
- inhibition at 10 µM [9]: 23%
- inhibition at 10 µM [10]: 0%
- inhibition at 10 µM [11]: 32%
- inhibition at 10 µM [12]: 26%
- inhibition at 10 µM [13]: 15%
- % inhibition at 10 µM [14]: 0%

SMILES: Clc1cccc(CNc2nc(Cl)nc3[nH]cnc23)c1 [Compound 9]
- Ki [1]: 0.31 µM and 0.314 µM
- inhibition at 10 µM [1]: 87%
- inhibition at 10 µM [2]: 0%
- Ki [3]: 1.78 ± 0.35 µM
- inhibition at 10 µM ([3]; single concentration 10 µM): 55%
- inhibition at 10 µM [4]: 28%
- inhibition at 10 µM [5]: 26%
- inhibition at 10 µM [6]: 37%
- inhibition at 10 µM [7]: 9%
- inhibition at 10 µM [8]: 4%
- inhibition at 10 µM [9]: 6%
- inhibition at 10 µM [10]: 0%
- inhibition at 10 µM [11]: 6%
- inhibition at 10 µM [12]: 14%
- inhibition at 10 µM [13]: 0%
- % inhibition at 10 µM [14]: 8%
